Laboratory results from patent US5334707A, “Use of acyl phosphate esters in the modification of hemoglobin” (priority 1992, dated 1994).
“Also recorded” adds a separate entry of the source.

Experiments:
[1] = system: human hemoglobin; assay: Cross-linking site of the reaction with hemoglobin; format: biochemical
Description: Structural characterization of the major and some minor modified hemoglobins that result form reacting deoxyHb and COHb with FMP were made by isolating single hemoglobin components wherever possible. The initial separation was made on a preparative size Synchropak AX300 anion exchange column. Further purification was obtained by rechromatography of anion exchange zones containing mixtures of hemoglobins on a preparative size Synchropak CM300 cation exchange column. Zones from cation exchange rechromatography were then subjected to globin chain separation using Vydak C-4 large pore reverse phase columns. In some cases, this was sufficient for identification of the unmodified globin chains. In most cases the globin chain was isolated, treated by oxidations or aminoethylation to stabilize the zysteinyl residues, hydrolyzed with trypsin and glu-C proteonase and the resultant peptides were separated and analyzed for amino acid composition. Table II lists the components isolated and the structural modifications identified for the FMP treated hemoglobin.
The number, chromatographic elution positions, and amounts of products of hemoglobin reacted with FMP varies with the ligand state of the hemoglobin and with the presence or absence of 2,3-DPG (2,3, diphosphoglycerate). FIG. 1 is an artion exchange HPLC chromatogram of the reaction mixture after treatment of deoxyhemoglobin with FMP. […]

[2] = target: carbonmonoxyhemoglobin (COHb) (Homo sapiens, UniProt P68871+P69905); assay: Reaction of FMP with carbonmonoxyhemoglobin, conversion by anion exchange chromatography; format: biochemical
Method: The effect of pH, type of buffer, and ligand state of the cross-linked hemoglobin was examined for the reaction of fumaryl bis(methyl phosphate) (FMP) with hemoglobin.
ethanesulphonic acid]at pH 7.5, 35°, for 2 hours. Over the range of pH from 6.8 to 7.5, the greatest reaction between COHb and FMP was obtained at the pH of 7.2 in bisTris. The reaction at pH 7.2, . […] A second peak of reacted material observed by anion exchange chromatography increased over 3 hours from 14% at 10 minutes to about 30% by 3 hours.

[3] = system: human hemoglobin; assay: Inter-subunit cross-linking of hemoglobin by SDS-polyacrylamide gel electrophoresis; format: biochemical; conditions: 0.3 mM hemoglobin, pH 7.4, 37° C., four hours
Method: Solutions (2 mL) of 4,4'stilbene dicarboxylic acid bis(methyl phosphate) at concentrations of 0.3 mM, 3.0 mM, 30 mM, and 300 mM were prepared in 0.100M tris-HCL buffer pH 7.4. A control solution containing only the buffer was prepared. To each of these freshly prepared solutions, 40 mg of human hemoglobin (Sigma Chemical Company) was added so that the resulting solution was 0.3 mM in hemoglobin. The reaction mixtures were than stirred vigorously and incubated at 37° C. After four hours the solutions were dialyzed against 0.100M sodium phosphate buffer, pH 7.0, for 20 hours at 4° C. to remove the unreacted acyl phosphates. The samples were then lyophilized and analyzed by SDS-polyacrylamide gel electrophoresis to assess the extent of intersubunit cross-linking (Weber, K; Osborn, M.; J. Biol. Chem. 1969, 244, 4406). Prior to electrophoresis, the hemoglobin samples, cross-linked bovine hemoglobin standard (Sigma Dalton Mark VII-L doubly crystallized, dialyzed, lyophilized), and molecular weight standards were denatured by boiling for 15 min. in 0.11M sodium phosphate buffer, pH 7.0, which contained 1% sodium dodecyl sulfate, 1% 2-mercaptoethanol, 36% urea, and 0.015% bromphenol blue. The final protein concentrations were 2 mg/mL and 10 to 20 μL aliquots were loaded on the gel. The process was conducted using a Bio-Rad Mini-Protean II dual slab cell apparatus. The extent of cross-linking of the hemoglobin could be estimated by visual comparison of the resolved electrophoretic bands after fixation followed by staining with Coomassie Brilliant Blue R.
The above procedure was repeated with solutions of fumaryl bis(methyl phosphate) at concentrations of 0.3 mM, 3.0 mM and 30 mM; 3,3'stilbene dicarboxylic acid bis(methyl phosphate) at a concentration of 30 mM and methyl acetyl phosphate at a concentration of 0.6M.

[4] = Solution stability (hydrolysis followed by 31P NMR) of bis(methyl acyl phosphates) in tris-HCl buffer; format: physicochemical; conditions: 0.100M tris-HCl buffer, pH 7.4, 37° C.; for half-life: 0.1 m tris-hcl buffer, 31P NMR
Method: The solution stability of the bis(methyl acyl phosphates) was examined. The hydrolysis of fumaryl bis(sodium methyl phosphate), stilbene 3,3'dicarboxylic acid bis(sodium methyl phosphate) and stilbene 4,4'dicarboxylic acid bis(sodium methyl phosphate) in 0.100M tris-HCL buffer, pH 7.4, 37° C., were followed by integrating signals for the reactant and the phosphorus-containing product, methyl phosphate, in the ^31 P NMR spectrum. Production of methyl phosphate was observed as an indication of hydrolysis or of acylation of the buffer. […] The half life of the 3,3'stilbene derivative, was 100 hours. […] This is in agreement with earlier reports of the reactivity of acyl phosphate esters (Disabato, G.; Jencks, W. P., J. Am. Chem. Soc. 1961, 83, 4393, 4400).

carbonmonoxyhemoglobin (COHb), sequence (P69905 2-142 limits assumed): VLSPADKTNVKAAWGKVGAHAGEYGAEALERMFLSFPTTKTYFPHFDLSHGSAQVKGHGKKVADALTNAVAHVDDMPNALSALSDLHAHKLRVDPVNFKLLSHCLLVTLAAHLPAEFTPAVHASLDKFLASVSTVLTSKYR
carbonmonoxyhemoglobin (COHb), sequence (P68871 2-147 limits assumed): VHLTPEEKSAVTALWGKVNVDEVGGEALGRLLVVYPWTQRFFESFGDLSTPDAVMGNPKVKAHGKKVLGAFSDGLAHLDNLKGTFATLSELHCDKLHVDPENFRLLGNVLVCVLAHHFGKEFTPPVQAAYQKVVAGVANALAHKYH

## COP(=O)(O)OC(=O)/C=C/C(=O)OP(=O)(O)OC [fumaryl bis(methyl phosphate), Fumaryl bis(sodium methyl phosphate)]
[1]; absence of 2,3-diphosphoglycerate
  cross-links formed in hemoglobin: cross-linked between β subunits (val-1 to lys-82) and between the same residues in a single β subunit as well as a cross-link between α subunits between lys-99 in each subunit; also recorded: cross-linked between β subunits (val-1 to lys-82) and between the same residues in a single β subunit as well as crosslinked between α subunits between lys-99 in each subunit
[1]; human hemoglobin
  cross-linking site of reaction: the highly cationic site which binds 2,3-diphosphoglycerate
[2]; 1 mM COHb, 2 mM FMP, pH 7.2, 35°, 2 hours
  conversion of the hemoglobin to fumaryl derivatives: about 75%
[2]; 1 mM COHb, 2 mM FMP, pH 7.2, 35°, at 10 minutes
  second peak of reacted material: 14%
[2]; 1 mM COHb, 2 mM FMP, pH 7.2, 35°, by 10 minutes
  major modified component, percent of total hemoglobin: approximately 35%
[2]; 1 mM COHb, 2 mM FMP, pH 7.2, 35°, by 3 hours
  second peak of reacted material: about 30%
[2]; COHb, bisTris compared to HEPES, pH 7.5, 35°, 2 hours
  effect of buffer on amounts or varieties of reaction products: No significant differences
[2]; pH range 6.8 to 7.5, bisTris
  pH of greatest reaction between COHb and FMP: 7.2
[3]
  species produced by reaction with hemoglobin (SDS gel electrophoresis): dimeric and tetrameric species
[4]
  half-life: 36 h

## COP(=O)(O)OC(=O)c1ccc(/C=C/c2ccc(C(=O)OP(=O)(O)OC)cc2)cc1 [Stilbene 4,4'-dicarboxylic acid bis(sodiummethyl phosphate)]
[3]
  species produced by reaction with hemoglobin (SDS gel electrophoresis): dimeric and tetrameric species
[4]; followed for nine hours
  change observed in the 31P NMR spectrum: no change observed in the spectrum

## O=C(O)c1cccc(C=Cc2cccc(C(=O)O)c2)c1 [stilbene 3,3'-dicarboxylic acid, Stilbene 3,3'-dicarboxylic acid, reference compound]
[3]
  species produced by reaction with hemoglobin (SDS gel electrophoresis): monomeric

## COP(=O)(O)OC(=O)c1cccc(/C=C/c2cccc(C(=O)OP(=O)(O)OC)c2)c1 [Stilbene 3,3'-dicarboxylic acid bis(sodiummethyl phosphate)]
[3]
  species produced by reaction with hemoglobin (SDS gel electrophoresis): dimeric and tetrameric species
[4]
  half-life: 100 h
